This is an account of results in patent US20220324865A1 (Bayer Aktiengesellschaft, priority 2018, published 2022).

pIC50: −log10 of the molar value.

For the assay, the target named is T1, human EP3 receptor (Homo sapiens, UniProt P43115).
T1 construct: expressed in transfected cells; host or cells: CHO K1 (Chinese Hamster Ovary), stably co-transfected with Galpha16 and mitochondrial clytin
T1 sequence (P43115 1-390): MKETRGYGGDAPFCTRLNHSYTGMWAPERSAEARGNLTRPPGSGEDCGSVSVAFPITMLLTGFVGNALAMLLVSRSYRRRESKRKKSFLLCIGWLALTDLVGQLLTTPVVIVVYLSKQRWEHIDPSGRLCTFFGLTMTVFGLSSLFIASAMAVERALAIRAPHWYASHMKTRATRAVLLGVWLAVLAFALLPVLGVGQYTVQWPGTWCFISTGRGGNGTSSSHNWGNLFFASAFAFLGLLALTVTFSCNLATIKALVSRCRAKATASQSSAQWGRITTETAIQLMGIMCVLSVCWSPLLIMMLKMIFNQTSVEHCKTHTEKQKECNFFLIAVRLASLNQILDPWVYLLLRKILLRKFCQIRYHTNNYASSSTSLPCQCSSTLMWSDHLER
The assay is described as follows: Cellular in vitro assay for determining EP3 receptor activity (human EP3 cell line, sulprostone-stimulated calcium luminescence). The class given is cell-based. The note with it: CHO cells expressing human EP3 and mitochondrial Clytin; antagonist mode, sulprostone at EC50; read-out: EP3 CHO mtCLY ANTAG IC50. In a few lines: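 Antagonist activity was measured as inhibition of the luminescent calcium signal elicited by EC50 sulprostone, following 10 min compound pretreatment. The cell line was recombinant CHO K1 co-expressing human EP3, Gα16 and the photoprotein Clytin, reconstituted with coelenterazine.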
The pIC50 is the IC50 on a negative log10 scale, so that one unit is a factor of ten. On to `Cc1cc(-c2cn3nc(C(=O)N[C@@H](c4ccc(F)cc4)[C@@H](O)C(F)(F)F)c(C4CC4)c3c(=O)[nH]2)ccc1Cl` [6-316], for which the pIC50 was 9.13.

For `O=C(NC(CN1CCOCC1)c1ccc(F)cc1)c1cc2c(=O)[nH]c(-c3ccc4ccccc4c3)cn2n1` (stereo not drawn) [Example 1-40, N-[1-(4-Fluorophenyl)-2-morpholinoethyl]-6-(2-naphthyl)-4-oxo-5H-pyrazolo[1,5-a]pyrazine-2-carboxamide], the negative-log IC50 (pIC50) was 8.08.

Take `COc1ccc(C2(NC(=O)c3cc4c(=O)[nH]c(-c5ccc6ccccc6c5)cn4n3)CN(C)C2)cn1` [6-63]: the pIC50 was 8.15.

`Cc1c(C(=O)NCc2ccncc2)nn2c(C)c(-c3ccc4ccccc4c3)[nH]c(=O)c12` [Example 3-64, 3,7-Dimethyl-6-(naphthalen-2-yl)-4-oxo-N-[(pyridin-4-yl)methyl]-4,5-dihydropyrazolo[1,5-a]pyrazine-2-carboxamide]: the negative logarithm of the IC50 (pIC50) is 8.36.

`Cc1ccc(-c2cn3nc(C(=O)N[C@H](C)c4ccc(F)cc4)c(C#N)c3c(=O)[nH]2)cc1C` [Example 1-73, 3-Cyano-6-(3,4-dimethylphenyl)-N-[(1R)-1-(4-fluorophenyl)ethyl]-4-oxo-4,5-dihydropyrazolo-[1,5-a]pyrazine-2-carboxamide]: the negative-log IC50 (pIC50) was 8.89.

Consider `Cc1cccc2ncc(-c3cn4nc(C(=O)NC5(c6ccc(F)cc6)CN(C)C5)c(C(C)C)c4c(=O)[nH]3)cc12` [Example 1-25, N-[3-(4-Fluorophenyl)-1-methylazetidin-3-yl]-6-(5-methylquinolin-3-yl)-4-oxo-3-(propan-2-yl)-4,5-dihydropyrazolo[1,5-a]pyrazine-2-carboxamide], for which the negative-log IC50 (pIC50) is 8.24.

Turning to `C[C@@H](NC(=O)c1cc2c(=O)[nH]c(-c3ccc4ccccc4c3)cn2n1)c1ccc(F)cc1` [6-78], the negative-log IC50 (pIC50) was 8.53.

In the case of `COc1ccc(CNC(=O)c2cc3c(=O)[nH]c(-c4ccc5ccccc5c4)cn3n2)cc1OC` [Example 1-103, N-(3,4-Dimethoxybenzyl)-6-(2-naphthyl)-4-oxo-4,5-dihydropyrazolo[1,5-a]pyrazin-2-carboxamide], the pIC50 was 8.73.

On to `O=C(NCCc1ccccc1)c1cc2c(=O)[nH]c(-c3ccc4ccccc4c3)cn2n1` [6-14], for which the pIC50 was 8.08.

For the molecule `Cc1ccc(-c2cn3nc(C(=O)N[C@H](C)c4ccc(F)cc4)c(C(F)(F)F)c3c(=O)[nH]2)cc1C` [Example 1-95, 6-(3,4-Dimethylphenyl)-N-[(1R)-1-(4-fluorophenyl)ethyl]-4-oxo-3-(trifluoromethyl)-4,5-dihydropyrazolo[1,5-a]pyrazine-2-carboxamide], the negative logarithm of the IC50 (pIC50) was 8.77.

As for `CC(C)CN1CC(NC(=O)c2nn3cc(-c4ccc5ccccc5c4)[nH]c(=O)c3c2C(F)(F)F)(c2ccc(F)cc2)C1` [Example 1-128, N-[3-(4-Fluorophenyl)-1-(2-methylpropyl)azetidin-3-yl]-6-(naphthalen-2-yl)-4-oxo-3-(trifluoromethyl)-4,5-dihydropyrazolo[1,5-a]pyrazine-2-carboxamide], the negative logarithm of the IC50 (pIC50) was 8.54.

Turning to `CC(C)[C@@H](C)NC(=O)c1nn2cc(-c3ccc4ccccc4c3)[nH]c(=O)c2c1C(F)(F)F` [6-512], the negative logarithm of the IC50 (pIC50) was 9.02.

`Cc1ccc(-c2cn3nc(C(=O)NCc4ccccc4)cc3c(=O)[nH]2)cc1C` [6-22]: the pIC50 is 8.40.

Regarding `O=C(NC(CO)(CO)C(F)(F)F)c1nn2cc(-c3ccc4ccccc4c3)[nH]c(=O)c2c1C(F)(F)F` [6-498], the pIC50 was 8.15.

`O=C(N[C@H](CCO)c1ccc(F)cc1)c1nn2cc(-c3ccc(Cl)c(Cl)c3)[nH]c(=O)c2c1C1CC1` [6-425]: the negative-log IC50 (pIC50) is 9.28.

On to `Cc1cc(-c2cn3nc(C(=O)N[C@@H](c4ccc(F)cc4)[C@H](O)C(F)(F)F)c(C4CC4)c3c(=O)[nH]2)ccc1Cl` [6-315], for which the negative-log IC50 (pIC50) is 8.70.

In the case of `CC(NC(=O)c1nn2cc(-c3ccc4ccccc4c3)[nH]c(=O)c2c1C#N)c1cccc(Br)c1` (stereo not drawn) [Example 3-47, N-[1-(3-Bromophenyl)ethyl]-3-cyano-6-(2-naphthyl)-4-oxo-5H-pyrazolo[1,5-a]pyrazine-2-carboxamide], the negative-log IC50 (pIC50) is 8.26.

As to `Cc1cccc2ncc(-c3cn4nc(C(=O)N[C@@H](C)c5ccccc5)c(C(C)C)c4c(=O)[nH]3)cc12` [Example 4-59, 6-(5-Methylquinolin-3-yl)-4-oxo-N-[(7S)-1-phenylethyl]-3-(propan-2-yl)-4,5-dihydropyrazolo[1,5-a]pyrazine-2-carboxamide], the pIC50 is 9.17.

In the case of `CC(C)c1c(C(=O)NC2(c3ccc(F)cc3)CN(C)C2)nn2cc(-c3ccc(Cl)c(F)c3)[nH]c(=O)c12` [6-538], the negative-log IC50 (pIC50) was 8.56.

On to `Cc1ccc(-c2cn3nc(C(=O)NCC(N)C(F)(F)F)c(C(F)(F)F)c3c(=O)[nH]2)cc1C` (racemic) [6-118], for which the pIC50 is 8.25.

As to `O=C(N[C@H](CCO)c1ccc(F)cc1)c1cc2c(=O)[nH]c(-c3ccc4c(c3)CCC4)cn2n1` [Example 1-97, 6-(2,3-Dihydro-1H-inden-5-yl)-N-[(1R)-1-(4-fluorophenyl)-3-hydroxpropyl]-4-oxo-4,5-dihydropyrazolo[1,5-a]pyrazine-2-carboxamide], the negative logarithm of the IC50 (pIC50) was 9.06.

In the case of `O=C(N[C@@H](c1ccc(F)cc1)C(F)(F)CO)c1nn2cc(-c3ccc(Cl)c(Cl)c3)[nH]c(=O)c2c1C1CCC1` [6-567], the negative-log IC50 (pIC50) is 8.60.

Regarding `Cc1ccc(-c2cn3nc(C(=O)N[C@@H](c4ccccc4)C(C)(C)O)cc3c(=O)[nH]2)cc1F` [6-640], the negative-log IC50 (pIC50) was 8.03.

Turning to `COC(=O)N1CC(NC(=O)c2cc3c(=O)[nH]c(-c4ccc(C)c(C)c4)cn3n2)(c2ccc(OC)cc2)C1` [Example 1-66, Methyl 3-({[6-(3,4-dimethylphenyl)-4-oxo-4,5-dihydropyrazolo[1,5-a]pyrazin-2-yl]carbonyl}amino)-3-(4-methoxyphenyl)azetidine-1-carboxylate], the pIC50 was 8.78.

Consider `Cc1ccc(-c2[nH]c(=O)c3c(C(F)(F)F)c(C(=O)N[C@H](C)c4ccc(F)cc4)nn3c2C)cc1C` [Example 1-123, 6-(3,4-Dimethylphenyl)-N-[(1R)-1-(4-fluorophenyl)ethyl]-7-methyl-4-oxo-3-(trifluoromethyl)-4,5-dihydropyrazolo[1,5-a]pyrazine-2-carboxamide], for which the negative logarithm of the IC50 (pIC50) is 8.49.

On to `COc1ccc(C(C)NC(=O)c2cc3c(=O)[nH]c(-c4ccc5ccccc5c4)cn3n2)cc1` (stereo not drawn) [Example 2-3, N-[1-(4-Methoxyphenyl)ethyl]-6-(2-naphthyl)-4-oxo-4,5-dihydropyrazolo[1,5-a]pyrazine-2-carboxamide], for which the pIC50 is 8.78.

Consider `CC(C)(O)[C@@H](NC(=O)c1nn2cc(-c3ccc(Cl)c(F)c3)[nH]c(=O)c2c1C(F)F)c1ccc(F)cc1` [6-632], for which the pIC50 is 8.20.

On to `CCn1ccc(C(C)NC(=O)c2nn3cc(-c4cnc5cccc(C)c5c4)[nH]c(=O)c3c2C(C)C)n1` (stereo not drawn) [Example 4-13, N-[1-(1-Ethylpyrazol-3-yl)ethyl]-3-isopropyl-6-(5-methyl-3-quinolyl)-4-oxo-5H-pyrazolo[1,5-a]pyrazine-2-carboxamide], for which the pIC50 was 8.84.

On to `Cc1ccc(-c2cn3nc(C(=O)NCc4ncc(C(F)(F)F)cc4Cl)cc3c(=O)[nH]2)cc1C` [6-9], for which the negative-log IC50 (pIC50) is 8.24.

Consider `CC(C)(C)CNC(=O)c1cc2c(=O)[nH]c(-c3ccc4ccccc4c3)cn2n1` [Example 2-11, N-(2,2-Dimethylpropyl)-6-(2-naphthyl)-4-oxo-4,5-dihydropyrazolo[1,5-a]pyrazine-2-carboxamide], for which the negative-log IC50 (pIC50) is 8.15.

Regarding `O=C(N[C@@H](c1ccc(F)cc1)C(F)(F)CO)c1nn2cc(-c3ccc(Cl)c(F)c3)[nH]c(=O)c2c1C1CCC1` [6-571], the negative logarithm of the IC50 (pIC50) was 8.82.

`Cc1ccc(-c2cn3nc(C(=O)NC4(C)CCC4)cc3c(=O)[nH]2)cc1C` [Example 5-5, 6-(3,4-Dimethylphenyl)-N-(1-methylcyclobutyl)-4-oxo-4,5-dihydropyrazolo[1,5-a]pyrazine-2-carboxamide]: the pIC50 is 8.17.

For the molecule `Cc1cc(-c2cn3nc(C(=O)NC4(c5ccc(F)cc5)CN(C)C4)c(C4CC4)c3c(=O)[nH]2)ccc1Cl` [6-333], the negative-log IC50 (pIC50) was 8.40.

With `COc1cc(-c2cn3nc(C(=O)N[C@H](C)C4CC4)c(C4CC4)c3c(=O)[nH]2)ccc1Cl` [6-483], the pIC50 is 9.00.

Regarding `Cc1cc(-c2cn3nc(C(=O)N[C@@H](c4ccc(F)cc4)C(F)(F)CO)c(C4CCC4)c3c(=O)[nH]2)ccc1Cl` [6-619], the pIC50 was 8.94.

Turning to `CCN1CCC(NC(=O)c2nn3cc(-c4ccc(Cl)c(C)c4)[nH]c(=O)c3c2C2CC2)(C(F)(F)F)C1` (single isomer, unassigned) [6-294], the negative-log IC50 (pIC50) was 8.00.

Turning to `Cc1ccc(-c2cn3nc(C(=O)NC(C)CN4CCOCC4)c(C4CC4)c3c(=O)[nH]2)cc1C` (single isomer, unassigned) [6-452], the negative-log IC50 (pIC50) was 8.21.

`Cc1ccc(-c2cn3nc(C(=O)NCC(O)C(F)(F)F)c(C4CC4)c3c(=O)[nH]2)cc1F` (single isomer, unassigned; enantiomer1) [Example 1-160, 3-Cyclopropyl-6-(3-fluoro-4-methylphenyl)-4-oxo-N-(3,3,3-trifluoro-2-hydroxpropyl)-4,5-dihydropyrazolo[1,5-a]pyrazine-2-carboxamide (enantiomer1)]: the negative logarithm of the IC50 (pIC50) is 8.45.

Turning to `Cc1ccc(-c2cn3nc(C(=O)N[C@@H](C)C4CC4)c(C(F)(F)F)c3c(=O)[nH]2)cc1Cl` [6-164], the pIC50 is 8.98.
